Assay results reported in patent US7148245B2, “Biphenyl derivatives substituted with an aromatic or heteroaromatic radical, and pharmaceutical and cosmetic compositions containing them” (Galderma Research & Development, priority 1997, dated 2006).

Which melting point does the source give for `CC1(C)CCC(C)(C)c2cc(-c3cc(-c4ccc(C(=O)O)nc4)ccc3-c3ccccc3)ccc21` [Example 48, 5-[2-(5,5,8,8-Tetramethyl-5,6,7,8-tetrahydro-2-naphthyl)biphenyl-4-yl]-2-pyridinecarboxylic acid] here?
The melting point was 222 to 224 °C.

For `CC1(C)CCC(C)(C)c2cc(-c3cc(CO)cc(-c4ccc(C(=O)O)cc4)c3)ccc21`, which melting point is on record?
The melting point was 213 °C.

For `CC1(C)CCC(C)(C)c2cc(-c3cc(-c4ccc(C(=O)O)cc4)ccc3-c3ccccc3)c(O)cc21`, which melting point is on record?
Its melting point is 273 °C.

For `COCOc1ccc(-c2ccc3c(c2)C(C)(C)CCC3(C)C)cc1-c1ccc(C(=O)O)cc1`, which melting point is on record?
Its melting point is 183 to 185 °C.

With `CC1(C)CCC(C)(C)c2cc(-c3cc(-c4ccc(C(=O)O)cc4)ccc3-c3ccccc3O)ccc21` [Example 22, 2-hydroxy-2′-(5,5,8,8-tetramethyl-5,6,7,8-tetrahydro-2-naphthyl)-[1,1′;4′,1″]terphenyl-4″-carboxylic acid] as the compound, how does the melting point read?
The melting point was 265 to 269 °C.

With `COc1ccccc1-c1ccc(-c2ccc(C(=O)O)cc2)cc1-c1ccc2c(c1)C(C)(C)CCC2(C)C` [Example 23, 2-Methoxy-2′-(5,5,8,8-tetramethyl-5,6,7,8-tetrahydro-2-naphthyl)-[1,1′;4′,1″]terphenyl-4″-carboxylic acid] as the compound, how does the melting point read?
Its melting point is 239 to 243 °C.

For `CC1(C)CCC(C)(C)c2cc(-c3ccc(-c4ccccc4)c(-c4ccc(C(=O)O)cc4)c3)ccc21` [Example 28, 4′-(5,5,8,8-Tetramethyl-5,6,7,8-tetrahydro-2-naphthyl)-[1,1′;2′,1″]terphenyl-4″-carboxylic acid], which melting point is on record?
Its melting point is 258 to 262 °C.

Which melting point does the source give for `CC1(C)CCC(C)(C)c2cc(-c3cc(-c4ccc(C(=O)O)cc4)ccc3OCCCCCCCCCO)ccc21` [Example 6, 4-[4-(9-Hydroxynonyloxy)-3-(5,6,7,8-tetrahydro-5,5,8,8-tetramethyl-2-naphthyl)phenyl]benzoic acid] here?
The melting point was 147 to 150 °C.

For `CC1(C)CCC(C)(C)c2cc(-c3cc(-c4ccc(C(=O)O)cc4)ccc3OCC(O)CO)ccc21` (racemic) [Example 10, 4′-(2,3-Dihydroxypropoxy)-3′-(5,5,8,8-tetramethyl-5,6,7,8-tetrahydro-2-naphthyl)biphenyl-4-carboxylic acid], which melting point is on record?
The melting point was 258 °C.

With `CCCOc1cc2c(cc1-c1cc(-c3ccc(C(=O)O)cc3)ccc1-c1ccccc1)C(C)(C)CCC2(C)C` [Example 40, 2′-(3-Propyloxy-5,5,8,8-tetramethyl-5,6,7,8-tetrahydro-2-naphthyl)-[1,1′;4′,1″]terphenyl-4″-carboxylic acid] as the compound, how does the melting point read?
The melting point was 234 °C.

With `COc1c(-c2ccc(C(=O)O)cc2)cccc1-c1ccc2c(c1)C(C)(C)CCC2(C)C` as the compound, how does the melting point read?
The melting point was 205 °C.

Which melting point does the source give for `CC1(C)CCC(C)(C)c2cc(C3C=C(c4ccccc4)C=CC3(OCC(=O)O)C(=O)O)ccc21` (stereo not shown) [Example 54, 4′-Carboxymethoxy-3′-(5,5,8,8-tetramethyl-5,6,7,8-tetrahydro-2-naphthyl)biphenyl-4′-carboxylic acid] here?
The melting point was 279 to 281 °C.

With `CC1(C)CCC(C)(C)c2cc(-c3cc(-c4ccc(C(=O)O)cc4)ccc3OCCCCCCCCO)ccc21` [Example 5, 4-[4-(8-Hydroxyoctyloxy)-3-(5,6,7,8-tetrahydro-5,5,8,8-tetramethyl-2-naphthyl)phenyl]benzoic acid] as the compound, how does the melting point read?
Its melting point is 155 to 160 °C.

For `COCOc1c(-c2ccc(C(=O)O)cc2)cccc1-c1ccc2c(c1)C(C)(C)CCC2(C)C`, which melting point is on record?
The melting point was 176 °C.

Which melting point does the source give for `CC1(C)CCC(C)(C)c2cc(-c3cc(-c4ccc(C(=O)O)cc4)ccc3-c3ccccc3)ccc21` [Example 14, 2′-(5,5,8,8-Tetramethyl-5,6,7,8-tetrahydro-2-naphthyl)-[1,1′;4′,1″]terphenyl-4″-carboxylic acid] here?
The melting point was 287 to 288 °C.

For `CC1(C)CCC(C)(C)c2cc(-c3cc(-c4ccc(C(=O)O)cc4)ccc3OCCCCCCCO)ccc21` [Example 4, 4-[4-(7-Hydroxyheptyloxy)-3-(5,6,7,8-tetrahydro-5,5,8,8-tetramethyl-2-naphthyl)phenyl]benzoic acid], which melting point is on record?
Its melting point is 168 to 172 °C.

With `CC1(C)CCC(C)(C)c2cc(-c3cc(-c4ccc(C(=O)O)cc4)ccc3OCCCCCC(=O)O)ccc21` [Example 56, 4′-(5-Carboxypentyloxy)-3′-(5,5,8,8-tetramethyl-5,6,7,8-tetrahydro-2-naphthyl)biphenyl-4-carboxylic acid] as the compound, how does the melting point read?
Its melting point is 245 °C.

Which melting point does the source give for `CCOC(=O)CCCCCOc1ccc(-c2ccc(C(=O)O)cc2)cc1-c1ccc2c(c1)C(C)(C)CCC2(C)C` [Example 55, 4′-(5-Ethoxycarbonylpentyloxy)-3′-(5,5,8,8-tetramethyl-5,6,7,8-tetrahydro-2-naphthyl)biphenyl-4-carboxylic acid] here?
Its melting point is 177 °C.

Which melting point does the source give for `COc1cccc(-c2ccc(-c3ccc(C(=O)O)cc3)cc2-c2ccc3c(c2)C(C)(C)CCC3(C)C)c1` [Example 20, 3-Methoxy-2′-(5,5,8,8-tetramethyl-5,6,7,8-tetrahydro-2-naphthyl)-[1,1′;4′,1″]terphenyl-4″-carboxylic acid] here?
The melting point was 258 to 259 °C.

For `CC1(C)CCC(C)(C)c2cc(-c3cc(-c4ccc(C(=O)O)cc4)ccc3OCCCCCCO)ccc21` [Example 3, 4-[4-(6-Hydroxyhexyloxy)-3-(5,6,7,8-tetrahydro-5,5,8,8-tetramethyl-2-naphthyl)phenyl]benzoic acid], which melting point is on record?
The melting point was 200 to 201 °C.

Which melting point does the source give for `CC1(C)CCC(C)(C)c2cc(-c3cc(-c4ccc(C(=O)O)cc4)ccc3C(=O)O)ccc21` here?
Its melting point is 343 °C.

Which melting point does the source give for `COCOc1ccccc1-c1ccc(-c2ccc(C(=O)O)cc2)cc1-c1ccc2c(c1)C(C)(C)CCC2(C)C` [Example 21, 2-Methoxymethoxy-2′-(5,5,8,8-tetramethyl-5,6,7,8-tetrahydro-2-naphthyl)-[1,1′;4′,1″]terphenyl-4″-carboxylic acid] here?
The melting point was 218 to 221 °C.

Which melting point does the source give for `COCOCc1cc(-c2ccc(C(=O)O)cc2)cc(-c2ccc3c(c2)C(C)(C)CCC3(C)C)c1` here?
Its melting point is 165 °C.

For `CC1(C)CCC(C)(C)c2cc(-c3cc(-c4ccc(C(=O)O)cc4O)ccc3-c3ccccc3)ccc21` [Example 42, 2″-Hydroxy-2′-(5,5,8,8-tetramethyl-5,6,7,8-tetrahydro-2-naphthyl)-[1,1′;4′,1″]terphenyl-4″-carboxylic acid], which melting point is on record?
Its melting point is 282 to 284 °C.

For `CC1(C)CCC(C)(C)c2cc(-c3cc(-c4ccc(C(=O)O)cc4)ccc3OCCN3CCOCC3)ccc21` [Example 12, 4′-(2-Morpholin-4-ylethoxy)-3′-(5,5,8,8-tetramethyl-5,6,7,8-tetrahydro-2-naphthyl)biphenyl-4-carboxylic acid], which melting point is on record?
The melting point was 270 to 272 °C.

With `COCOc1cc(C(=O)O)ccc1-c1ccc(-c2ccccc2)c(-c2ccc3c(c2)C(C)(C)CCC3(C)C)c1` [Example 43, 2″-Methoxymethoxy-2′-(5,5,8,8-tetramethyl-5,6,7,8-tetrahydro-2-naphthyl)-[1,1′;4′,1″]terphenyl-4″-carboxylic acid] as the compound, how does the melting point read?
Its melting point is 204 to 206 °C.

For `CC1(C)CCC(C)(C)c2cc(-c3cc(-c4ccc(C(=O)O)c(O)c4)ccc3-c3ccccc3)ccc21` [Example 46, 3″-Hydroxy-2′-(5,5,8,8-tetramethyl-5,6,7,8-tetrahydro-2-naphthyl)-[1,1′;4′,1″]terphenyl-4″-carboxylic acid], which melting point is on record?
Its melting point is 266 to 268 °C.

Which melting point does the source give for `CC1(C)CCSc2cc(-c3cc(-c4ccc(C(=O)O)cc4)ccc3-c3ccccc3)ccc21` here?
Its melting point is 261 °C.

With `COCOc1cccc(-c2ccc(-c3ccc(C(=O)O)cc3)cc2-c2ccc3c(c2)C(C)(C)CCC3(C)C)c1` [Example 18, 3-Methoxymethoxy-2′-(5,5,8,8-tetramethyl-5,6,7,8-tetrahydro-2-naphthyl)-[1,1′;4′,1″]terphenyl-4″-carboxylic acid] as the compound, how does the melting point read?
Its melting point is 212 °C.

For `Cc1cc2c(cc1-c1cc(-c3ccc(C(=O)O)cc3)ccc1-c1ccccc1)C(C)(C)CCC2(C)C` [Example 36, 2′-(3,5,5,8,8-Pentamethyl-5,6,7,8-tetrahydro-2-naphthyl)-[1,1′;4′,1″]terphenyl-4″-carboxylic acid], which melting point is on record?
The melting point was 217 °C.

For `CC1(C)CCC(C)(C)c2cc(-c3cc(-c4ccc(C(=O)O)cc4)ccc3OCc3ccccc3)ccc21` [Example 9, 4-[4-Benzyloxy-3-(5,6,7,8-tetrahydro-5,5,8,8-tetramethyl-2-naphthyl)phenyl]benzoic acid], which melting point is on record?
Its melting point is 241 to 244 °C.
